Laboratory results taken from patent publication US20160272617A1, “SUBSTITUTED PHENYLALANINE DERIVATIVES” (BAYER PHARMA AKTIENGESELLSCHAFT, priority 2013, published 2016).
Counter-ions that a name gives are not always drawn.

Key:
human factor XIa = molecular target: T1, human factor XIa (Homo sapiens, UniProt P03951); test: Measurement of FXIa inhibition (fluorogenic peptide substrate Boc-Glu(OBzl)-Ala-Arg-AMC); format: biochemical; conditions: factor XIa from Kordia, 15 min preincubation, 30 min at 22° C., fluorescence
T1 construct: purchased Kordia
Experimental: The factor XIa inhibition of the inventive substances is determined using a biochemical test system which utilizes the reaction of a peptidic factor XIa substrate to determine the enzymatic activity of human factor XIa. Here, factor XIa cleaves from the peptic factor XIa substrate the C-terminal aminomethylcoumarin (AMC), the fluorescence of which is measured. The determinations are carried out in microtitre plates.
Test substances are dissolved in dimethyl sulphoxide and serially diluted in dimethyl sulphoxide (3000 μM to 0.0078 μM; resulting final concentrations in the test: 50 μM to 0.00013 μM). In each case 1 μl of the diluted substance solutions is placed into the wells of white microtitre plates from Greiner (384 wells). Subsequently, the following are added successively: 20 μl of assay buffer (50 mmol/l Tris buffer pH 7.4; 100 mmol/l sodium chloride; 5 mmol/l calcium chloride; 0.1% bovine serum albumin) and 20 μl of factor XIa from Kordia (0.45 nM in assay buffer). After 15 min of incubation, the enzyme reaction is started by addition of 20 μl of the factor XIa substrate Boc-Glu(OBzl)-Ala-Arg-AMC dissolved in assay buffer (10 μM in assay buffer) from Bachem, the mixture is incubated at room temperature (22° C.) for 30 min and fluorescence is then measured (excitation: 360 nm, emission: 460 nm). The measured emissions of the test mixtures with test substance are compared to those of control mixtures without test substance (only dimethyl sulphoxide instead of test substance in dimethyl sulphoxide), and the IC50 values are calculated from the concentration/activity relationships.

human and animal plasma = test: Determination of anticoagulatory activity: activated partial thromboplastin time (aPTT) in plasma; conditions: concentration of test substance which brings about a 1.5-fold extension of the aPTT, plasma species not given
Experimental: The anticoagulatory activity of the test substances is determined in vitro in human and animal plasma (for example mouse, rat, rabbit, pig and dog plasma). To this end, blood is drawn off in a mixing ratio of sodium citrate/blood of 1:9 using a 0.11 molar sodium citrate solution as receiver. Immediately after the blood has been drawn off, it is mixed thoroughly and centrifuged at about 4000 g for 15 minutes. The supernatant is pipetted off.
The activated partial thromboolastin time (aPTT) is determined in the presence of varying concentrations of test substance or the corresponding solvent using a commercial test kit (C. K. Prest from Diagnostica Stago). The test compounds are incubated with the plasma and the PTT reagent (cephalin, kaolin) at 37° C. for 3 minutes. Coagulation is then started by addition of a 25 mM aqueous calcium chloride solution, and the time when coagulation occurs is determined. The concentration of test substance which brings about a 1.5-fold extension of the aPTT is determined.

T1 sequence (P03951 388-625 limits assumed): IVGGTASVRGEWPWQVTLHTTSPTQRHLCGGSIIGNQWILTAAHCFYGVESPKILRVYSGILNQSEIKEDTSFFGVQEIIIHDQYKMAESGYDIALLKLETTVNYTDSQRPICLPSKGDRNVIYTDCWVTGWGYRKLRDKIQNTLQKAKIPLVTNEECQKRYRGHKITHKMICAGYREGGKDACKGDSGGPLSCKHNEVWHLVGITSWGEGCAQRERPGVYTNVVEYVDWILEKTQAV
T1 sequence (P03951 19-387 partner limits assumed): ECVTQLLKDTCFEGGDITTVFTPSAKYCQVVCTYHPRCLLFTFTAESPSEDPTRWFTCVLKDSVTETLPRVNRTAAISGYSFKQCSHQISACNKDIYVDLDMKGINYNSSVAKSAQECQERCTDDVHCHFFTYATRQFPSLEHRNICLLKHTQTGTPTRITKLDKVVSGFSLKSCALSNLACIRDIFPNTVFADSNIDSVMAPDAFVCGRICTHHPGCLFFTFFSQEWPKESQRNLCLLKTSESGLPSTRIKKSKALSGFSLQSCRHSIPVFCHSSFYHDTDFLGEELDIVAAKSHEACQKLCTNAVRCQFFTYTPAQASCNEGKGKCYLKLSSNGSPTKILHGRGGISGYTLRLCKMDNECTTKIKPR

| SMILES | IC50 (human factor XIa) [nM] | aPTT (human and animal plasma) [µmol/L] | aPTT (human and animal plasma; hydrochloride) [µmol/L] |
| --- | --- | --- | --- |
| Cc1cc(C(=O)NC2CCNCC2)ccc1-c1ccc(C[C@H](NC(=O)[C@H]2CC[C@H](CN)CC2)C(=O)Nc2ccc(-c3nc(C(F)(F)C(F)(F)C(N)=O)n[nH]3)cc2)cc1 [Example 127, 4′-[(2S)-2-({[trans-4-(Aminomethyl)cyclohexyl]carbonyl}amino)-3-({4-[3-(3-amino-1,1,2,2-tetrafluoro-3-oxopropyl)-1H-1,2,4-triazol-5-yl]phenyl}amino)-3-oxopropyl]-2-methyl-N-(piperidin-4-yl)biphenyl-4-carboxamide hydrochloride] | 1.5 | 0.14 | – |
| Cc1cc(C(=O)NC2CCN(C)CC2)ccc1-c1ccc(C[C@H](NC(=O)[C@H]2CC[C@H](CN)CC2)C(=O)Nc2ccc3[nH]c(C(F)(F)F)nc3c2)cc1 [Example 76, 4′-[(2S)-2-({[trans-4-(Aminomethyl)cyclohexyl]carbonyl}amino)-3-oxo-3-{[2-(trifluoromethyl)-1H-benzimidazol-5-yl]amino}propyl]-2-methyl-N-(1-methylpiperidin-4-yl)biphenyl-4-carboxamide hydrochloride] | 25 | 0.37 | – |
| COc1c(-c2ccc(C[C@H](NC(=O)[C@H]3CC[C@H](CN)CC3)C(=O)Nc3ccc(-c4nn[nH]n4)cc3)cc2)ccc(C(=O)NC2CCNCC2)c1F [Example 121, 4′-[(2S)-2-({[trans-4-(Aminomethyl)cyclohexyl]carbonyl}amino)-3-oxo-3-{[4-(2H-tetrazol-5-yl)phenyl]amino}propyl]-3-fluoro-2-methoxy-N-(piperidin-4-yl)biphenyl-4-carboxamide hydrochloride] | 1 | 0.007 | – |
| Cc1cc(C(=O)N[C@H]2CC[C@H](O)CC2)ccc1-c1ccc(CC(NC(=O)[C@H]2CC[C@H](CN)CC2)C(=O)Nc2ccc(-c3nnc(C(F)(F)C(F)(F)C(=O)O)[nH]3)cc2)cc1 (mixture of isomers) [Example 103, 3-[5-(4-{[2-({[trans-4-(Aminomethyl)cyclohexyl]carbonyl}amino)-3-{4′-[(trans-4-hydroxycyclohexyl)carbamoyl]-2′-methylbiphenyl-4-yl}propanoyl]amino}phenyl)-4H-1,2,4-triazol-3-yl]-2,2,3,3-tetrafluoropropanoic acid hydrochloride (enantiomer mixture)] | 1.1 | 0.1 | – |
| Cc1cc(C(=O)NC2CC3CCC(C2)N3C)ccc1-c1ccc(C[C@H](NC(=O)C2CCC(CN)CC2)C(=O)Nc2ccc(-c3nn[nH]n3)cc2)cc1 (stereo partly drawn) [Example 44, 4′-[(2S)-2-({[trans-4-(Aminomethyl)cyclohexyl]carbonyl}amino)-3-oxo-3-{[4-(2H-tetrazol-5-yl)phenyl]amino}propyl]-2-methyl-N-(8-methyl-8-azabicyclo[3.2.1]oct-3-yl)biphenyl-4-carboxamide hydrochloride] | 5.7 | 0.11 | – |
| Cc1cc(C(=O)N2CCNCC2)ccc1-c1ccc(C[C@H](NC(=O)[C@H]2CC[C@H](CN)CC2)C(=O)Nc2ccc(-c3nn[nH]n3)cc2)cc1 [Example 16, trans-4-(Aminomethyl)-N-[(2S)-3-[2′-methyl-4′-(piperazin-1-ylcarbonyl)biphenyl-4-yl]-1-oxo-1-{[4-(2H-tetrazol-5-yl)phenyl]amino}propan-2-yl]cyclohexanecarboxamide hydrochloride] | 3.9 | 0.23 | – |
| CCN(C)C1CCC(NC(=O)c2ccc(-c3ccc(C[C@H](NC(=O)[C@H]4CC[C@H](CN)CC4)C(=O)Nc4ccc(-c5nnn[nH]5)cc4)cc3)c(C)c2)CC1 (stereo partly drawn) [Example 150, 4′-[(2S)-2-({[trans-4-(Aminomethyl)cyclohexyl]carbonyl}amino)-3-oxo-3-{[4-(1H-tetrazol-5-yl)phenyl]amino}propyl]-N-{4-[ethyl(methyl)amino]cyclohexyl}-2-methylbiphenyl-4-carboxamide hydrochloride] | 2.5 | 0.07 | – |
| NC[C@H]1CC[C@H](C(=O)N[C@@H](Cc2ccc(-c3ccc(C(=O)NC4CCNCC4)c(Cl)c3)cc2)C(=O)Nc2ccc(-c3nn[nH]n3)cc2)CC1 [Example 122, 4′-[(2S)-2-({[trans-4-(Aminomethyl)cyclohexyl]carbonyl}amino)-3-oxo-3-{[4-(2H-tetrazol-5-yl)phenyl]amino}propyl]-3-chloro-N-(piperidin-4-yl)biphenyl-4-carboxamide hydrochloride] | 5.2 | 0.16 | – |
| CCN(CC)CCNC(=O)c1ccc(-c2ccc(C[C@H](NC(=O)[C@H]3CC[C@H](CN)CC3)C(=O)Nc3ccc(-c4nn[nH]n4)cc3)cc2)cc1 [Example 38, 4′-[(2S)-2-({[trans-4-(Aminomethyl)cyclohexyl]carbonyl}amino)-3-oxo-3-{[4-(2H-tetrazol-5-yl)phenyl]amino}propyl]-N-{2-[diethylamino]ethyl}biphenyl-4-carboxamide hydrochloride] | 14 | 0.42 | – |
| Cc1cc(C(=O)NC2CCNCC2)ccc1-c1ccc(C[C@H](NC(=O)[C@H]2CC[C@H](CN)CC2)C(=O)Nc2ccc3[nH]c(=O)oc3c2)cc1 [Example 55, 4′-{(2S)-2-({[trans-4-(Aminomethyl)cyclohexyl]carbonyl}amino)-3-oxo-3-[(2-oxo-2,3-dihydro-1,3-benzoxazol-6-yl)amino]propyl}-2-methyl-N-(piperidin-4-yl)biphenyl-4-carboxamide hydrochloride] | 41 | 0.37 | – |
| COCCOCCOCCOCCNC(=O)c1ccc(-c2ccc(C[C@H](NC(=O)[C@H]3CC[C@H](CN)CC3)C(=O)Nc3ccc4c(=O)[nH][nH]c4c3)cc2)c(C)c1 [Example 28, 4′-{(2S)-2-({[trans-4-(Aminomethyl)cyclohexyl]carbonyl}amino)-3-oxo-3-[(3-oxo-2,3-dihydro-1H-indazol-6-yl)amino]propyl}-2-methyl-N-(2,5,8,11-tetraoxatridecan-13-yl)biphenyl-4-carboxamide hydrochloride] | 14 | 0.33 | – |
| Cc1cc(C(=O)NC2CCNCC2)ccc1-c1ccc(C[C@H](NC(=O)[C@H]2CC[C@H](CN)CC2)C(=O)Nc2ccc(-c3nnc(CCC(=O)O)[nH]3)cc2)cc1 [Example 152, 3-{(5-[4-({(2S)-2-({[trans-4-(Aminomethyl)cyclohexyl]carbonyl}amino)-3-[2′-methyl-4′-(piperidin-4-ylcarbamoyl)biphenyl-4-yl]propanoyl}amino)phenyl]-4H-1,2,4-triazol-3-yl}propanoic acid hydrochloride] | 5.3 | 0.7 | – |
| Cc1cc(C(=O)N[C@H]2CC[C@H](N(C)C)CC2)ccc1-c1ccc(C[C@H](NC(=O)[C@H]2CC[C@H](CN)CC2)C(=O)Nc2ccc3[nH]c(C(F)(F)C(F)(F)F)nc3c2)cc1 [Example 78, 4′-[(2S)-2-({[trans-4-(Aminomethyl)cyclohexyl]carbonyl}amino)-3-oxo-3-{[2-(pentafluoroethyl)-1H-benzimidazol-5-yl]amino}propyl]-N-[4-(dimethylamino)cyclohexyl]-2-methylbiphenyl-4-carboxamide hydrochloride] | 12 | 0.38 | – |
| Cc1cc(C(=O)NC2CNCC(F)(F)C2)ccc1-c1ccc(C[C@H](NC(=O)[C@H]2CC[C@H](CN)CC2)C(=O)Nc2ccc(-c3nn[nH]n3)c(F)c2)cc1 (stereo partly drawn) [Example 90, 4′-[(2S)-2-({[trans-4-(Aminomethyl)cyclohexyl]carbonyl}amino)-3-{[3-fluoro-4-(2H-tetrazol-5-yl)phenyl]amino}-3-oxopropyl]-N-(5,5-difluoropiperidin-3-yl)-2-methylbiphenyl-4-carboxamide hydrochloride] | 1.6 | 0.06 | – |
| Cc1cc(C(=O)NC2CCN(C)CC2)ccc1-c1ccc(C[C@H](NC(=O)[C@H]2CC[C@H](CN)CC2)C(=O)Nc2ccc(-c3nc(C(F)(F)C(F)(F)C(=O)O)n[nH]3)cc2)cc1 [Example 100, 3-[5-(4-{[(2S)-2-({[trans-4-(Aminomethyl)cyclohexyl]carbonyl}amino)-3-{2′-methyl-4′-[(1-methylpiperidin-4-yl)carbamoyl]biphenyl-4-yl}propanoyl]amino}phenyl)-1H-1,2,4-triazol-3-yl]-2,2,3,3-tetrafluoropropanoic acid hydrochloride] | 2.2 | – | 0.1 |
